Test results from ChEMBL document CHEMBL5143591, “Human Neuraminidases: Structures and Stereoselective Inhibitors” (J Med Chem, 2022).

Tests used:
Sialidase-4 = target: T1, Sialidase-4 (Homo sapiens, UniProt Q8WWR8); assay: Inhibition of human NEU4
T1 sequence (Q8WWR8 whole entry): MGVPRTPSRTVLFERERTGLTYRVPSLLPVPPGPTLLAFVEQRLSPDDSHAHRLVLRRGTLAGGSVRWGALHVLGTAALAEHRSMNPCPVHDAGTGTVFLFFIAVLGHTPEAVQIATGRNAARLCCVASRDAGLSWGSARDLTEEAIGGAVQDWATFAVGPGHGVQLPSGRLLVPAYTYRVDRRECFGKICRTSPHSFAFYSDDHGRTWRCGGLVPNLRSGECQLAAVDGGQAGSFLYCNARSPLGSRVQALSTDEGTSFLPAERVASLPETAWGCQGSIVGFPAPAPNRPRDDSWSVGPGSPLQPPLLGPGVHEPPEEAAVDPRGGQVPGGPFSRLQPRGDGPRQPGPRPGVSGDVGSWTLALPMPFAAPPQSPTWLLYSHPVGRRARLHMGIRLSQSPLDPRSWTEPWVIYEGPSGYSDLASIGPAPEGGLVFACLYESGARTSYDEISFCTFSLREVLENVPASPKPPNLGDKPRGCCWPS

Sialidase-1 = Sialidase-1 (Homo sapiens, UniProt Q99519); assay: Inhibition of human NEU1
Sialidase-3 = target: T2, Sialidase-3 (Homo sapiens, UniProt Q9UQ49); assay: Inhibition of human NEU3
T2 sequence (Q9UQ49 whole entry): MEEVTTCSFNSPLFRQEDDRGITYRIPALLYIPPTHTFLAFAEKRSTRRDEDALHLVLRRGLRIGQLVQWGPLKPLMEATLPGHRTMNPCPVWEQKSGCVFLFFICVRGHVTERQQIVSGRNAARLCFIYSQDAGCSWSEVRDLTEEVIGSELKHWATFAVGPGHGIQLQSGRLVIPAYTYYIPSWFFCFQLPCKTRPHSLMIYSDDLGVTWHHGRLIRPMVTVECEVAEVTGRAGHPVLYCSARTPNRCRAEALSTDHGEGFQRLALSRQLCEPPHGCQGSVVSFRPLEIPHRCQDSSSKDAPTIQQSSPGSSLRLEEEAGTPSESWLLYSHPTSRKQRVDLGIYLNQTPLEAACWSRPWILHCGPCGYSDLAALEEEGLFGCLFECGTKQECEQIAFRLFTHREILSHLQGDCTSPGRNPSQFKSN

Measured: IC50

CC(=O)N[C@H]1[C@H]([C@H](O)[C@H](O)CO)O[C@](O)(C(=O)O)C[C@@H]1O
> 500 µM: Sialidase-4 | Sialidase-1 | Sialidase-3
